Each block holds one compound with its values, some of them ahead of it.
Assays:
[1] = tested on: HDAC (HCT116 cells); experiment: whole cell deacetylase (HDAC) assay in HCT116 cells with Boc-Lys(Ac)-AMC; type: cell-based, human
Experimental: (§1) Freshly trypsinized cells were dispensed into 96-well black Costar E1A/RIA plates (Corning Inc., Corning, N.Y.). Small molecule substrate Boc-Lys(Ac)-AMC (Bachem Biosciences Inc., King of Prussia, Philadelphia) was added to cell suspension with the final concentration of 300 uM. Cells were placed in 37° C. incubator with 5% CO2 for 90 minutes. Reaction was stopped by adding a freshly prepared Flouor-de-Lys™ deleveloper (Biomol, Plymouth Meeting, Philadelphia) with 1 uM TSA (Biomol) in assay buffer (25 mM Tris, HCl pH8.0, 137 mM NaCl, 2.7 mM KCl, 1 mM MgCl2) plus 1% NP-40. With the presence of 1% NP-40, both excellular and intracellular HDAC activity was measured in cultured cells altogether.
(§2) HDAC enzyme assay in intact cells was carried out as described in Example 3.
(§3) Cultured HCT116 cells were counted and distributed to each well of the 96-well plate. […] After addition of Sirtuin substrate (Fluor-de-Lys-SirT1, 500 uM) or HDAC substrate Boc-Lys(Ac)-AMC (300 uM), the cells are further incubated for an additional 2 hours. Reaction was stopped and read as described in Examples 3 and 6.

[2] = tested on: HDAC (A549 cells); experiment: whole cell deacetylase (HDAC) assay in A549 cells with Boc-Lys(Ac)-AMC; type: cell-based, human; conditions: pre-incubated with inhibitors 16 hours, mean of at least 2 experiments
Experimental: as §1, §2

[3] = tested on: HDAC (Du145 cells); experiment: whole cell deacetylase (HDAC) assay in Du145 cells with Boc-Lys(Ac)-AMC; type: cell-based, human; conditions: pre-incubated with inhibitors 16 hours, mean of at least 2 experiments
Experimental: as §1, §2

[4] = tested on: HDAC (human white blood cells); experiment: ex vivo inhibition of whole cell HDAC activity in human white blood cells; type: cell-based; conditions: 16 hours incubation
Experimental: Whole blood (human or mouse) was centrifuged at 2500 rpm for 10 minutes at ambient temperature in a Sorvall RT-7 centrifuge (Mandel Scientific Co., Guelph, Ontario). Plasma was removed and buffy coat was collected. Five volumes of Erythrocyte Lysis Buffer (EL) (Qiagen Canada Inc., Mississauga, Ontario) were added to buffy coat. Buffy coat was incubated on ice for 20 minutes before it was centrifuged at 400 g for 10 minutes at 4° C. Supernatant was removed and buffy coat was washed twice with EL buffer and re-centrifugation. Buffy coat was resuspended in RPMI media and cells (white blood cells) were counted with trypan blue exclusion.

[5] = tested on: HDAC (293T cells); experiment: whole cell deacetylase (HDAC) assay in 293T cells with Boc-Lys(Ac)-AMC; type: cell-based, human; conditions: for IC50: pre-incubated with inhibitors 16 hours, mean of at least 2 experiments
Experimental: as §1, §2

[6] = tested on: HDAC (Jurkat T cells); experiment: whole cell deacetylase (HDAC) assay in Jurkat T cells with Boc-Lys(Ac)-AMC; type: cell-based, human; conditions: pre-incubated with inhibitors 16 hours, mean of at least 2 experiments
Experimental: as §1, §2

[7] = molecular target: T1, recombinant Sirt1 (Homo sapiens, UniProt Q96EB6); experiment: recombinant Sirt1 enzyme assay in vitro (Fluor-de-Lys-SirT1 substrate); type: biochemical; conditions: for inhibition of recombinant Sirt1 in vitro: TSA up to 10 uM
T1 construct: purchased Biomol
T1 sequence (Q96EB6 1-747): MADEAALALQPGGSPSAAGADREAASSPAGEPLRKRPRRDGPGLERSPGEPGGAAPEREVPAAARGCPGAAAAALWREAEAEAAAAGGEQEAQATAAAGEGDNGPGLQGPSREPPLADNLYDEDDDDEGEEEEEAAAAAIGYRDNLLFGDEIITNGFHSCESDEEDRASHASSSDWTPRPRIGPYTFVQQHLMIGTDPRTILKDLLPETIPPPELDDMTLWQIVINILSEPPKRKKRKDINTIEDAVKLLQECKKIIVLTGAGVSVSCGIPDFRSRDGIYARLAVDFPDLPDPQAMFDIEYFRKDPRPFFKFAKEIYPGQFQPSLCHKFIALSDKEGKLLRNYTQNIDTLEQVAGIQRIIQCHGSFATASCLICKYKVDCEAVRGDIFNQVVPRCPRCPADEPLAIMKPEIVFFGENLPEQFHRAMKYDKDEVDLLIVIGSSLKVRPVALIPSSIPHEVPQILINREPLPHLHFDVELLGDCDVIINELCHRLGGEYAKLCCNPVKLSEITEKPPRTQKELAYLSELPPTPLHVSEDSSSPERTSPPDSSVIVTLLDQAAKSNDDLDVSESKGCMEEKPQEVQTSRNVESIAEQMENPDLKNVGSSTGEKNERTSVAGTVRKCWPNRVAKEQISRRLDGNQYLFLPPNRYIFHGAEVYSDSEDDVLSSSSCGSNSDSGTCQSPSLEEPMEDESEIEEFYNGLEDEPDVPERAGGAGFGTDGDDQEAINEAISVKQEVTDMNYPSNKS
From the text: (§4) Human SirT1, 2, 3 recombinant enzymes were purchased from Biomol (Biomol, Plymouth Meeting, Philadelphia).
(§5) Reaction is read as described in Example 3.

[8] = molecular target: T2, recombinant Sirt3 (Homo sapiens, UniProt Q9NTG7); experiment: recombinant Sirt3 enzyme assay in vitro (Fluor-de-Lys-SirT2 substrate); type: biochemical
T2 construct: purchased Biomol
T2 sequence (Q9NTG7 1-399): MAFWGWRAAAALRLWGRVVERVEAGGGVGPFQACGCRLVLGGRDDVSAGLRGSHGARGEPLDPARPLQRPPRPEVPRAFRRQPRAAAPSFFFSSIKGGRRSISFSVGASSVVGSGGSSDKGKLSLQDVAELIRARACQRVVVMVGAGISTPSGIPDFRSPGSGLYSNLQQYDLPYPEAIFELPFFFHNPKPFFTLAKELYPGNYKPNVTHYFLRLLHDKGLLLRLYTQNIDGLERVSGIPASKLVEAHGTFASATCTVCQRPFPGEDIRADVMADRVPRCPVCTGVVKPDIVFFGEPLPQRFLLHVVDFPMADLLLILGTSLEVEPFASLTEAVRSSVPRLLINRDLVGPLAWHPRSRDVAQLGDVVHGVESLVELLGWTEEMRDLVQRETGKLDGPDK
From the text: as §4, §5

[9] = molecular target: T3, SirT1 (mouse white blood cells) (Mus musculus, UniProt Q923E4); experiment: ex vivo whole cell Sirt1 activity in mouse white blood cells; type: cell-based; conditions: 90 minute incubation, 200 uM Fluor-de-Lys Sirt1
T3 construct: from tissue; host or cells: mouse white blood cells
T3 sequence (Q923E4 1-737): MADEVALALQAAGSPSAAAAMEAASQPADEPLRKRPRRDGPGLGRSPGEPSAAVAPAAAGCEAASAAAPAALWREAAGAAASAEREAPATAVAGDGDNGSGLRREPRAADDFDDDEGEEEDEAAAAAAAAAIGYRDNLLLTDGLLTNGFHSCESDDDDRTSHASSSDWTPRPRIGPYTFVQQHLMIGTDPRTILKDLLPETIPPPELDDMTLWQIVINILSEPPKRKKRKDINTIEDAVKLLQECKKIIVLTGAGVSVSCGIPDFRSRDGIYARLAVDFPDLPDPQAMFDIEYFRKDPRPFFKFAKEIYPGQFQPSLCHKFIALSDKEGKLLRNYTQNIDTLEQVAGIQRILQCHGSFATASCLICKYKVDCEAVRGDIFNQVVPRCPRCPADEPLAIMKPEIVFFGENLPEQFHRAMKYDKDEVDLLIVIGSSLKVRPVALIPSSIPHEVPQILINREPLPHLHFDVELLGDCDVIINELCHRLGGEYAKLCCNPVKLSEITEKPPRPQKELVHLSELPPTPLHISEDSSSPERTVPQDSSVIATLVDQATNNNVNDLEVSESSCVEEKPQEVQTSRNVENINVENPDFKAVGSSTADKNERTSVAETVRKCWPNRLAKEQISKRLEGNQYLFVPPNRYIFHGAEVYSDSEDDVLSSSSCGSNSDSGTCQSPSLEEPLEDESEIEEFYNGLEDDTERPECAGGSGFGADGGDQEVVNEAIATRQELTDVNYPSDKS
Experimental: Mouse blood was collected in heparin tubes. Erythrocytes were lysed with five volumes of Erythrocyte Lysis buffer (EL, Qiagen Canada Inc, Mississauga, Ontario). White blood cells were recovered by centrifugation (400×g for 5 min), washed and resuspended in RPMI (+10% FBS), then counted. […] After 90 minute incubation, reaction was stopped with one volume of assay buffer (50 mM Tris-Ci pH 8.0, 137 mM NaCl, 2.7 mM KCl, 1 mM MgCl2) supplemented with 1× Developer II (BioMol, Plymouth Meeting, Philadelphia) and 1% NP40.

[10] = molecular target: T4, SirT1 (HCT116 cells) (Homo sapiens, UniProt Q96EB6); experiment: whole cell sirtuin (SirT1) activity in HCT116 cells with Fluor-de-Lys-SirT1 substrate; type: cell-based; conditions: HCT116 cells; 1.5 hours pre-incubation; Fluor-de-Lys-SirT1 500 uM
T4 construct: endogenous in cells; host or cells: HCT116
T4 sequence (Q96EB6 1-747): T1 sequence (Q96EB6 1-747)
From the text: Cultured cells (HCT116) were trypsinized and counted by trypan blue exclusion. Live cells (2×10^5) were distributed to each well of the 96-well plate. […] Independently, we fixed concentrations of either Fluor-de-Lys-SirT1 substrate or Fluor-de-Lys-SirT2 in whole cells and analyzed the effect of exogeneous NAD+ concentration on whole cell sirtuin activity (FIG. 7b). […] Therefore the reading was done immediately after stopping.
as §3, with “6. […] This observation is consistent with our finding in Example 7 that TSA can not inhibit class III (Sirtuins) in vitro.” for “6.”

[11] = molecular target: T5, recombinant Sirt2 (Homo sapiens, UniProt Q8IXJ6); experiment: recombinant Sirt2 enzyme assay in vitro (Fluor-de-Lys-SirT2 substrate); type: biochemical; conditions: for inhibition of recombinant Sirt2 in vitro: TSA up to 10 uM; for IC50: substrate FldSirt2, 45 minutes, read-out: IC50 against recombinant Sirt2
T5 construct: purchased Biomol
T5 sequence (Q8IXJ6 1-389): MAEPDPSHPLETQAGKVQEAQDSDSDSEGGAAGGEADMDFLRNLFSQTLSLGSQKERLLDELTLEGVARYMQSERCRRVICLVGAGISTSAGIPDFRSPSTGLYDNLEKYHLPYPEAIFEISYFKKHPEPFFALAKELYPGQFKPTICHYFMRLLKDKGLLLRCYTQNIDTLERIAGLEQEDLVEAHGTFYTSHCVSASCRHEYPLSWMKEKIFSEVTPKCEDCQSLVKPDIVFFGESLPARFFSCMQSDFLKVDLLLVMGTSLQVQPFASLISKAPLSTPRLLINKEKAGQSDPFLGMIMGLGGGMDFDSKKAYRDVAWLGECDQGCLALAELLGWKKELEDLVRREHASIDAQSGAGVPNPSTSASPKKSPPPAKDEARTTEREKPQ
From the text: as §4, §5

IC50 ([1]; pre-incubated with inhibitors 16 hours, mean of at least 2 experiments): 0.06 µM | IC50 [2]: 0.02 µM | IC50 [3]: 0.05 µM | IC50 [6]: 0.04 µM
Structure (SMILES): O=C(/C=C/c1ccc(CN(CCO)CCc2c[nH]c3ccccc23)cc1)NO [LAQ-824]
inhibition of whole cell HDAC activity in human white blood cells [4]: dose-dependent inhibition | IC50 [5]: 0.04 µM

Structure (SMILES): CC(=O)O[C@H]1C(=O)[C@@]2(C)[C@H]([C@H](OC(=O)c3ccccc3)[C@]3(O)C[C@H](OC(=O)[C@H](O)[C@@H](NC(=O)c4ccccc4)c4ccccc4)C(C)=C1C3(C)C)[C@]1(OC(C)=O)CO[C@@H]1C[C@@H]2O [taxol]
effect on HDAC activity in whole cells [5]: no effect on HDAC activity | IC50 [5]: > 50 µM

inhibition of recombinant Sirt1 in vitro [7]: inhibits | inhibition of recombinant SirT3 in vitro [8]: inhibits | IC50 ([8]; substrate FldSirt2, 45 minutes, read-out: IC50 against recombinant Sirt3): 575 µM | inhibition of recombinant Sirt2 in vitro [11]: inhibits | IC50 [11]: 14 µM
Structure (SMILES): Cc1ccc(C(=O)Nc2ccc(S(=O)(=O)O)c3cc(S(=O)(=O)O)cc(S(=O)(=O)O)c23)cc1NC(=O)c1cccc(NC(=O)Nc2cccc(C(=O)Nc3cc(C(=O)Nc4ccc(S(=O)(=O)O)c5cc(S(=O)(=O)O)cc(S(=O)(=O)O)c45)ccc3C)c2)c1 [suramin]
inhibition of SirT1 in whole mouse white blood cells [9]: inhibits SirT1 enzymes in whole white blood cells | inhibition of whole cell SirT1 activity [10]: inihibits whole cell SirT1 activity in a dose-dependent manner

inhibition of recombinant Sirt1 in vitro [7]: does not inhibit | IC50 ([7]; substrate FldSirt1, 45 minutes, read-out: IC50 against recombinant Sirt1): > 10 µM | inhibition of whole cell SirT1 activity [10]: not | inhibition of recombinant Sirt2 in vitro [11]: does not inhibit | IC50 [11]: > 10 µM
Structure (SMILES): CC(/C=C/C(=O)NO)=C\[C@@H](C)C(=O)c1ccc(N(C)C)cc1 [TSA, trichostatin A]
inhibition of whole cell HDAC activity ([1]; Boc-Lys(Ac)-AMC 300 uM): could inhibit whole cell HDAC activity
